Measurements from US7981939B2, “Application of 2-bromide-isovanillin for the manufacture of a medicament for anti-cancer or/and radiation/chemotherapy sensitization” (Institute of Radiation Medicine, Academy of Military …, priority 2005, dated 2011).

Key:
[1] = tested on: human cervical cancer cell line HeLa; test: MTT assay, proliferation of HeLa cells; format: cell-based; details: for effect on the proliferation of HeLa cells: concentrations of less than 40 μmol/L, up to 72 hrs
Description: Human cervical cancer cell line HeLa, human liver cancer cell line HepG2/7221/7402, human ovarian cancer cell line HOC8/A2780, human glioma cell line BT325, lung cancer cell line A549, brain metastatic lung cancer cell line BT72 and normal human hepatic cell line LO2 were all grown in DMEM liquid medium supplemented with 10% newborn calf serum. Human leukemia cell line Jurkat was grown in 1640 medium supplemented with 10% newborn calf serum. The above cell lines were cultured in a CO2 incubator at 5% CO2 at 37° C.
By way of example, human cervical cancer cell line HeLa was used to study the effect of vanillin on the proliferation of cancer cells by MTT assay. Specifically, human cervical cancer cells HeLa were seeded into a 96-well plate at a density of 5×10^3 cells/well, and were divided into four groups. To each of the groups vanillin was added at a concentration of 0, 100, 250 or 500 μmol/L, respectively, and was allowed to grow for 4 days. Using the MTT assay, the optical density (OD) values at 490 nm were measured and recorded every day, wherein the OD value is indicative of the number of cells, i.e., the proliferation of cells.
By way of example, human cervical cancer cell line HeLa was used to study the effect of several vanillin derivatives for 72 hrs on the proliferation of cancer cells by MTT assay. Specifically, human cervical cancer cells HeLa were seeded into a 96-well plate at a density of 5×10^3 cells/well, and were divided into four groups. To each of the groups were added increasing concentrations (0, 10, 20, 30, 40 μmol/L) of vanillin derivatives ethyl vanillin (Code No. VAND3206), 4-methoxy vanillin (Code No. VAND3207), isovanillin (Code No. VAND3209) and 2-bromo-isovanillin (Code No. VAND3208), and the cells were cultured for 72 hrs. Using the MTT assay, the optical density (OD) values at 490 nm were measured and recorded every day, wherein the OD value is indicative of the number of cells, i.e., the proliferation of cells.
By way of example, human cervical cancer cell line HeLa was used to study the inhibitory effect of 2-bromo-isovanillin at different concentrations for different periods of time on the proliferation of cancer cells by MTT assay. Specifically, human cervical cancer cells HeLa were seeded into a 96-well plate at a density of 5×10^3 cells/well, and were divided into […]. To each of the groups 2-bromo-isovanillin was added at a concentration of 0, 10, 20, 30, 40 or 50 μmol/L, and was cultured for 14 days, respectively. Using the MTT assay, the optical density (OD) values at 490 nm were measured and recorded every day, wherein the OD value is indicative of the number of cells, i.e., the proliferation of cells.

[2] = target: T1, nuclear protein DNA-PKcs serine/threonine protein kinase (Homo sapiens, UniProt P78527); test: DNA-PKcs kinase activity in nuclear protein of treated HepG2 cells; format: cell-based; details: HepG2, 100 μmol/L, 24 hrs
T1 construct: adding nuclear proteins to the solid phase reaction system; endogenous in cells; host or cells: HepG2 human liver cancer cells (nuclear protein extract)
Description: The activity of nuclear protein DNA-PKcs serine/threonine protein kinase in human liver cancer cells HepG2 treated with 0, 10, 20, 40, 100 μmol/L 2-bromo-isovanillin for 24 hrs was determined by using […] DNA dependent protein kinase assay kit (Promega), according to the manufacturer's instructions, and the treatment with 100 μmol/L vanillin for the same period of time served as control. Basically, the assay was carried out by immobilizing the phosphorylation substrate specific to DNA-PKcs, i.e., a peptide derived from p53 protein onto a cellulose membrane, adding nuclear proteins to the solid phase reaction system, isotopically labeling the substrate by phosphorylation using γ-^32P ATP, removing non-specific signals after the isotope labeling, and visualizing the kinase activity upon X-ray film developing.

SMILES | effect on the proliferation of HeLa cells [1] | concentration at which proliferation of cancer cells was effectively inhibited ([1]; HeLa, 0-500 μmol/L, 4 days, OD at 490 nm) | inhibitory effect on DNA-PKcs kinase activity compared with 2-bromo-isovanillin [2]
COc1ccc(C=O)cc1O [VAND3209, isovanillin] | no inhibitory effect | – | –
COc1cc(C=O)ccc1O [vanillin] | – | above 250 μmol/L | significantly weaker
CCOc1cc(C=O)ccc1O [ethyl vanillin] | no inhibitory effect | – | –
